Assays:
[1] = Scintigraphy and biodistribution in rats; design: species or system Wistar rats; conditions: rat, in vivo, iv
Description: To enable radiolabeling of the β‐lactam–peptide conjugates, their peptide sequence was elongated by an N‐terminal D‐tyrosine. […] The solution was mixed with 5 MBq of iodine‐125 and radiolabeling was performed using the chloramine T method as previously described.^[ [35] ^] After 30 s, the reaction was quenched by the addition of a saturated methionine solution and the radiolabeled compound purified by reversed‐phase preparative radio‐HPLC (1100 series, Agilent Technologies, Santa Clara, CA, USA). Analysis was performed by analytical radio‐HPLC (1100 series, Agilent Technologies, Santa Clara, CA, USA) using a linear gradient from water (+ 0.1% TFA) to acetonitrile (+ 0.1% TFA) over 5 min at a flow rate of 2 mL min^−1.
All animal studies were approved by the Animal Care and Use committees from Regierungspräsidium Karlsruhe (Karlsruhe, Germany; reference number 35–9185.81/G‐199/21; date of approval: November 23, 2021). […]
The biodistribution of CTZ‐yR6 in Wistar rats was determined at 10 min and 3 h post injection. […] Using a Cobra γ‐counter (Packard Bioscience, Meriden, CT, USA), the amount of radioactivity in each sample was measured which was then used in combination with the organ weight and injected dose for the calculation of the […] per gram of tissue (%ID g^−1).

Gram‐positive bacteria = assay: MIC compared with parent β‐lactam; type: cell-based
Description: (§1) The minimum inhibitory concentration (MIC) of the β‐lactam–peptide conjugates was determined by broth microdilution as previously described.^[ [17] ^] Briefly, in cation‐adjusted MHB II medium, a twofold serial dilution of the compounds was prepared in 96‐well round‐bottom polystyrene or polypropylene microtiter plates with each well containing 50 µL. The plates were inoculated with 50 µL bacterial suspension and the final inoculum, in a total volume of 100 µL, contained 5 × 10^5 CFU mL^−1. The microplates were incubated for 20 h at 37 ± 1 °C. The lowest concentration preventing visible bacterial growth was considered the MIC value. For susceptibility testing of combinations of β‐lactamase‐inhibitors with either a β‐lactam antibiotic or a β‐lactam–peptide conjugate, fixed concentrations of the inhibitors according to the EUCAST (European Committee on Antimicrobial Susceptibility Testing) guidelines (clavulanic acid = 2 mg L^−1, avibactam = 4 mg L^−1) were used.

[2] = system: Enterobacteriaceae (CTZ‐resistant); assay: MIC compared with parent β‐lactam; type: cell-based
Description: as §1

Gram‐negative bacteria = assay: MIC compared with parent β‐lactam; type: cell-based
Description: as §1

E. faecalis (vanB) = assay: MIC compared with parent β‐lactam; type: cell-based; conditions: on a molar level
Description: as §1

CC(C)(O/N=C(\C(=O)N[C@@H]1C(=O)N2C(C(=O)[O-])=C(C[n+]3ccccc3)CS[C@H]12)c1csc(N)n1)C(=O)NCCCCCCN1C(=O)CC(SC[C@H](NC(=O)[C@H](CCCNC(=N)N)NC(=O)[C@H](CCCNC(=N)N)NC(=O)[C@H](CCCNC(=N)N)NC(=O)[C@H](CCCNC(=N)N)NC(=O)[C@H](CCCNC(=N)N)NC(=O)[C@@H](N)CCCNC(=N)N)C(N)=O)C1=O (some centres unmarked) [CTZ-R6]
biodistribution (organ accumulation) [1]: accumulated in the liver and in the kidneys
increase in antimicrobial activity versus CTZ (factor) (Gram‐positive bacteria): ≈ 1000
increase in antimicrobial activity versus CTZ [2]: ca. fourfold
increase in antimicrobial activity versus CTZ (factor) (Gram‐negative bacteria): 2–32
increase in antimicrobial activity versus CTZ (E. faecalis (vanB)): ~300 fold
